Assay results reported in US20220356174A1, “PYRIDIN-2-ONE COMPOUNDS USEFUL AS SMARCA2 ANTAGONISTS” (Epizyme, Inc., priority 2018, published 2022).

Experiments:
A549 cells [1] = assay: High-throughput proliferation (HTP) assay for A549 cells (CellTiter-Glo, 7 days); assay type: cell-based; conditions: Homo sapiens, 168 h, read-out: A549 SMARCA2 IC50
How it was run: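 Seven-day growth of A549 (62.5 cells/well, F12K with 10% HI-FBS, 37° C.) with compound, read by CellTiter-Glo ATP luminescence. Percent inhibition scaled between DMSO wells and 10 μM Doxorubicin wells, then fitted for EC50 and IC50.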

A549 cells [2] = assay: Long term proliferation (LTP) assay, day 15 IC50 in A549 cells; assay type: cell-based; conditions: Homo sapiens, 360 h
H358 cells = assay: High-throughput proliferation (HTP) assay for H358 cells (CellTiter-Glo, 7 days); assay type: cell-based; conditions: Homo sapiens, NCI-H358, 168 h, read-out: H358 SMARCA2 IC50
How it was run: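 Cells were plated at 1,000 cells/well in RPMI 1640 + 10% HI-FBS + 1% pen/strep on pre-dispensed compound and incubated 7 days at 37 °C, 5% CO2. Viability was read as ATP luminescence with CellTiter-Glo after 30 min at RT. DMSO served as 0% and 10 µM doxorubicin as 100% inhibition for EC50/IC50.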

SMARCA2 = target: T1, SMARCA2 (Homo sapiens, UniProt P51531); assay: SMARCA2 FRET nucleosome remodeling activity assay; assay type: biochemical
T1 construct: FLAG tag (YKDDDDK) (C); made in house; host or cells: Sf21 insect cells (baculovirus, pFastBacI)
T1 sequence (P51531 with tags, fused parts or gaps): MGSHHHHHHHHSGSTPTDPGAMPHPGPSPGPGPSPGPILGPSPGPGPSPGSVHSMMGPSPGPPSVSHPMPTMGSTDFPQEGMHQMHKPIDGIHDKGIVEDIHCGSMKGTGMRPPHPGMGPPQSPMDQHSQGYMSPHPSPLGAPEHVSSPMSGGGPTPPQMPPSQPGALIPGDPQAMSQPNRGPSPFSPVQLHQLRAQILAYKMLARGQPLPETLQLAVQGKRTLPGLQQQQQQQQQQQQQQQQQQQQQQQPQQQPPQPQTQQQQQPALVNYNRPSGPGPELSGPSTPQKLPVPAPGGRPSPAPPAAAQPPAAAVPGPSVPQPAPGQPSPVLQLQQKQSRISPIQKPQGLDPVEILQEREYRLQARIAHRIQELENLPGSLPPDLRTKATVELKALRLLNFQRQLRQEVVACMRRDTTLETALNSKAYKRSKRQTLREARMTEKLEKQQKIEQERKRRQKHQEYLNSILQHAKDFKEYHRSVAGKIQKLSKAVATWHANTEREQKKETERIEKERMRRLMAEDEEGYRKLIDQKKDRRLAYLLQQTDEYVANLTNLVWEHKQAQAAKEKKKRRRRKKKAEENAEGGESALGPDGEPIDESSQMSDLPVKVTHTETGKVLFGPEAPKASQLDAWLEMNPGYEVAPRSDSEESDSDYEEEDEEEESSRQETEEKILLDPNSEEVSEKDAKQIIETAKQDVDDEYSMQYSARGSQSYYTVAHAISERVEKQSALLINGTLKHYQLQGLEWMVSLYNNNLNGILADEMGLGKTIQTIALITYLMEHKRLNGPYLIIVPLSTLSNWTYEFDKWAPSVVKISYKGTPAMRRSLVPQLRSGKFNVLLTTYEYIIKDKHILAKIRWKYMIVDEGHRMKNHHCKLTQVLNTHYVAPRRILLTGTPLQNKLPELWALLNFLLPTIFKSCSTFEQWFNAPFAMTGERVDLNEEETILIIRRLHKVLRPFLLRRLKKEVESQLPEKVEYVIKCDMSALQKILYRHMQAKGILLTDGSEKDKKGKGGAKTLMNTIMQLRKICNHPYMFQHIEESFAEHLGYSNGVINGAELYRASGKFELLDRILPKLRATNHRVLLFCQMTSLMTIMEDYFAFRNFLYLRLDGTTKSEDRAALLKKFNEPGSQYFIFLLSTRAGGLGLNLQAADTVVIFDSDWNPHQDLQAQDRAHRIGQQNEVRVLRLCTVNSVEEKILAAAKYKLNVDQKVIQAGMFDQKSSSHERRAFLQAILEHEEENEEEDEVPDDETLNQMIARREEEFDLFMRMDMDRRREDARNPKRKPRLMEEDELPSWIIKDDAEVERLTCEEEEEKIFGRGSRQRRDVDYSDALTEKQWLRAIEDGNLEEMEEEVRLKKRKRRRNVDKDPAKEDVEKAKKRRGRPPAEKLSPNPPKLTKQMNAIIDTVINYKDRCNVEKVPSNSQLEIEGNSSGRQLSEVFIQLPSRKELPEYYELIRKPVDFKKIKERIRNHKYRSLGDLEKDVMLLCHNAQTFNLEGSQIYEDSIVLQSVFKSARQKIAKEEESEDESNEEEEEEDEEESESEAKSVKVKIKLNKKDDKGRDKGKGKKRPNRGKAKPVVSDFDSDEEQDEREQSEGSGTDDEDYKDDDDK
Method: The SMARCA2 remodeling assay was initiated by the addition of 2 uL of a nucleosome remodeling assay substrate and ATP mixture (final volume=10 uL). […] The assays were terminated after 15 minutes by the addition of 2 uL EDTA (final concentration of 25 mM). The SMARCA2 remodeling activity was determined by measuring the fluorescence ratio of the Cy3 and Cy5 labels ([…]). The remodeling of the nucleosome substrate causes an increase in the spacing between the Cy3 and Cy5 labels and therefore a reduction in FRET and an increase in Cy3/Cy5 fluorescence ratio.

IC50 (A549 cells [1]) [µM]	IC50 (A549 cells [2]) [µM]	IC50 (SMARCA2) [µM]	SMILES	IC50 (H358 cells) [µM]
0.868	0.316	0.0253	N#Cc1sc(C(=O)Nc2cc(F)c(=O)n(CCF)c2)cc1Cl [Compound 139]	
0.682	0.142	0.0471	O=C(Nc1cc(F)c(=O)n(CC(F)F)c1)c1cc(Cl)c(C(F)(F)F)s1 [Compound 298, 4-Chloro-N-(1-(2,2-difluoroethyl)-5-fluoro-6-oxo-1,6-dihydropyridin-3-yl)-5-(trifluoromethyl)thiophene-2-carboxamide]	> 10

SMILES	IC50 (A549 cells [1]) [µM]	IC50 (A549 cells [2]) [µM]	IC50 (SMARCA2) [µM]	IC50 (H358 cells) [µM]
N#Cc1cc(C(=O)Nc2cc(F)c(=O)n(CC(F)F)c2)sc1C(F)(F)F [Compound 82c, 4-cyano-N-[1-(2,2-difluoroethyl)-5-fluoro-6-oxopyridin-3-yl]-5-(trifluoromethyl)thiophene-2-carboxamide]	0.589	0.259		> 10
